pIC50, pKi: −log10 of the molar value.
Assays:
[1] = Concentration required to inhibit proliferation in a mixture of human lymphocytes using mixed lymphocyte reaction test; assay type: functional, cell-based
[2] = target: Dihydroorotate dehydrogenase (quinone), mitochondrial (Homo sapiens, UniProt Q02127); test: Inhibition of human recombinant dihydroorotate dehydrogenase (DHODase)
Chain of Dihydroorotate dehydrogenase (quinone), mitochondrial (Q02127 whole entry): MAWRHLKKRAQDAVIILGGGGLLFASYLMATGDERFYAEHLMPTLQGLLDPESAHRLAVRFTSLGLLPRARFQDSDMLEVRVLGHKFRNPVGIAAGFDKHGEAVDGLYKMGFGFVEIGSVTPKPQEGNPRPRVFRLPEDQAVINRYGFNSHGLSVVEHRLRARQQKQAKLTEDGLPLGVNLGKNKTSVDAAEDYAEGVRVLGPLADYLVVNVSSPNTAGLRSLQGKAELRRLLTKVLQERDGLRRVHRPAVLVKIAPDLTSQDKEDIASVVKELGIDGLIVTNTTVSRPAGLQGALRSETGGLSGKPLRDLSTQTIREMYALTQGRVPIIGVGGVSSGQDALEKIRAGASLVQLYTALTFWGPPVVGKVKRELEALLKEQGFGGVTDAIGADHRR

pKi [2]	Structure (SMILES)	pIC50 [1]
< 6.00	O=C(O)c1c2c(nc3ccc(F)cc13)-c1cc(-c3ccccc3)ccc1CC2	< 5.30
6.43	O=C(O)c1c2c(nc3ccc(F)cc13)-c1ccc(-c3ccc(C(F)(F)F)cc3)cc1CC2	6.07
7.43	Cc1cccc(-c2ccc3c(c2)SCc2c-3nc3ccc(F)cc3c2C(=O)O)c1	7.85
7.37	O=C(O)c1c2c(nc3ccc(F)cc13)-c1ccc(-c3cccc(C(F)(F)F)c3)cc1CC2	7.74
7.60	COc1cccc(-c2ccc3c(c2)CCc2c-3nc3ccc(F)cc3c2C(=O)O)c1	8.00
6.80	COc1cccc(-c2ccc3c(n2)CCc2c-3nc3ccc(F)cc3c2C(=O)O)c1	6.52
6.66	Cc1ccc(-c2ccc3c(c2)CSc2c-3nc3ccc(F)cc3c2C(=O)O)cc1	6.46
7.40	Cc1ccc(-c2ccc3c(c2)CCc2c-3nc3ccc(F)cc3c2C(=O)O)cc1	7.55
7.47	O=C(O)c1c2c(nc3ccc(F)cc13)-c1ccc(-c3ccccc3F)cc1CC2	7.40
7.09	Cc1cccc(-c2ccc3c(n2)CCc2c-3nc3ccc(F)cc3c2C(=O)O)c1	6.74
6.87	Cc1cccc(-c2ccc3c(c2)CSc2c-3nc3ccc(F)cc3c2C(=O)O)c1	6.77
7.23	Cc1cccc(-c2ccc3c(c2)CCc2c-3nc3ccc(F)cc3c2C(=O)O)c1	7.22
7.51	O=C(O)c1c2c(nc3ccc(C(F)(F)F)cc13)-c1ccc(-c3ccccc3)cc1CC2	7.28
7.26	COc1ccc(-c2ccc3c(c2)CCc2c-3nc3ccc(F)cc3c2C(=O)O)cc1	7.22
7.40	O=C(O)c1c2c(nc3ccc(F)cc13)-c1ccc(-c3ccccc3C(F)(F)F)cc1CC2	7.30
< 6.74	O=C(O)c1c2c(nc3ccc(F)cc13)-c1ccc(-c3nccs3)cc1CC2	< 5.30

The remaining lines, values behind:

Structure (SMILES)	pKi [2]	pIC50 [1]
O=C(O)c1c2c(nc3ccc(F)cc13)-c1cccc(Oc3ccccc3)c1CC2	6.02	< 5.30
O=C(O)c1c2c(nc3ccc(F)cc13)-c1ccc(-c3ccccc3)nc1CC2	6.39	7.00
Cc1ccccc1-c1ccc2c(c1)SCc1c-2nc2ccc(F)cc2c1C(=O)O	7.57	9.22
O=C(O)c1c2c(nc3ccc(F)cc13)-c1ccc(-c3ccccc3)cc1S(=O)(=O)C2	6.86	5.07
O=C(O)c1c2c(nc3ccc(F)cc13)-c1ccc(-c3ccccc3)cc1CS2	6.77	6.51
O=C(O)c1c2c(nc3ccc(F)cc13)-c1cnc(-c3ccccc3)nc1CC2	6.42	6.22
O=C(O)c1c2c(nc3ccc(F)cc13)-c1ccc(-c3ccccc3)cc1CO2	< 6.69	6.42
O=C(O)c1c2c(nc3ccc(F)cc13)-c1ccc(-c3ccoc3)cc1CC2	6.72	6.55
O=C(O)c1c2c(nc3ccc(F)cc13)-c1ccc(-c3ccccc3)cc1[S+]([O-])C2 (stereo unspecified)	6.69	6.62
O=C(O)c1c2c(nc3ccc(F)cc13)-c1ccc(-c3ccccc3)cc1OC2	7.32	6.66
O=C(O)c1c2c(nc3ccc(F)cc13)-c1sc(-c3ccccc3)cc1CC2	< 6.74	< 5.00
Cc1ccc(-c2ccc3c(c2)SCc2c-3nc3ccc(F)cc3c2C(=O)O)cc1	7.89	7.30
O=C(O)c1c2c(nc3ccc(F)cc13)-c1ccc(-c3ccsc3)cc1CC2	7.28	6.77
COc1ccccc1-c1ccc2c(c1)CCc1c-2nc2ccc(F)cc2c1C(=O)O	7.70	7.30
O=C(O)c1c2c(nc3ccc(F)cc13)-c1ccc(-c3ccccc3)cc1SC2	7.77	7.80
Cc1c(-c2ccc(-c3ccccc3F)cc2)nc2ccc(F)cc2c1C(=O)O [BREQUINAR SODIUM]	–	7.82
Cc1ccccc1-c1ccc2c(c1)CSc1c-2nc2ccc(F)cc2c1C(=O)O	7.60	7.19
Cc1ccccc1-c1ccc2c(c1)CCc1c-2nc2ccc(F)cc2c1C(=O)O	8.00	7.52
O=C(O)c1c2c(nc3ccc(F)cc13)-c1cccc(-c3ccccc3)c1CC2	6.52	< 5.30
O=C(O)c1c2c(nc3ccc(F)cc13)-c1ccc(-c3ccccc3)cc1CC2	8.08	7.52

From ChEMBL document CHEMBL1130739 (Bioorg Med Chem Lett, 1998)
